Measured values as given in US20060105330A1, “Diagnostics and remedies for malignant brain tumor” (Institute of gene and brain science, priority 2002, published 2006).

System: RFX1 gene expression in human glioma U251 cells
Experiment: RFX1 gene re-expression by 5-azacytidine and trichostatin A treatment, RT-PCR
Type: cell-based
Settings: single inhibitor, compared with the control, 5-azacytidine 500 nM for 3 days, trichostatin A 500 ng/ml for 24 hours
Procedure: Total RNAs derived from human glioma tissues (GB4, GB13, GB16, and GB17) and human glioma cell lines were extracted with Trizol (manufactured by GIBCO), and total RNAs of normal tissues were purchased from Clontech. cDNAs were synthesized from 10 μg of each of total RNAs using the reverse transcriptase XL (AMV) (manufactured by Takara Shuzo Co., Ltd.) in a final volume of 10 μl. PCR was performed in the system in a total volume of 25 μl, using 1 μl cDNA template and Takara Taq™ (manufactured by Takara Shuzo Co., Ltd.). […]
The resulting PCR products were electrophoresed on 2% agarose gel and analyzed by ethidium bromide staining.
Human glioma cell lines were plated at a low density, incubated for 24 hours, and then 5-azacytidine (methyltransferase inhibitor) (manufactured by Sigma Chemical Co.) was added at a final concentration of 500 nM. […] PCR was then performed and changes in gene expression were analyzed using each agent.
To investigate the relationship between reduction or loss of expression of the RFX1 and BGT-1 genes in glioma and DNA methylation or histone deacetylation, change in expression of each gene was analyzed using the RT-PCR method, either after treatment of human glioma cell lines with the methyltransferase inhibitor 5-azacytidine and the histone deacetylase inhibitor trichostatin A singly or after treatment of cells with both inhibitors.

## Nc1ncn([C@@H]2O[C@H](CO)[C@@H](O)[C@H]2O)c(=O)n1 [5-azacytidine]
  change in expression of the RFX1 gene (RT-PCR): enhancement of expression

## CC(/C=C/C(=O)NO)=C\[C@@H](C)C(=O)c1ccc(N(C)C)cc1 [trichostatin A]
  change in expression of the RFX1 gene (RT-PCR): enhancement of expression
